Consider 15 compounds from patent US5158958A, “Imidazo[4,5-b]quinolinyl oxy alkyl sulfonyl piperidine derivatives” (Bristol-Myers Squibb Company, priority 1992, dated 1992).

Counter-ions that a name gives are not always drawn.

This series can be described thus: Aqueous solubility. Conditions: water, compounds prepared as dihydrochloride salts. The series is classed as physicochemical.

The term solubility denotes the dissolved amount per volume that the medium holds. Consider `O=S(=O)(CCCOc1ccc2[nH]c3nc(O)nc-3cc2c1)C1CCNCC1` [Cmpd 17a, 4-[[3-[[(2-,3-Dihydro-2-oxo-1H-imidazo[4,5-b]guinolin7-yl)oxy]propylsulfonyl]piperidinedihydrochloride], for which the solubility is more than 10000 µg/mL. `O=S(=O)(CCCOc1ccc2[nH]c3nc(O)nc-3cc2c1)C1CCN(Cc2ccccc2)CC1` [Cmpd 17b, 4-[[3-[2,3-Dihydro-2-oxy-1H-imidazo[4,5-b]quinolin-7-yloxy]propyl]sulfonyl]-1-(phenylmethyl)piperidine dihydrochloride]: the solubility was more than 10000 µg/mL. Turning to `O=S(=O)(CCCOc1ccc2[nH]c3nc(O)nc-3cc2c1)C1CCN(Cc2ccc(F)cc2)CC1` [Cmpd 17c, 4-[[3-[2,3-Dihydro-2-oxo1H-imidazo[4,5-b]quinolin-7piperidinedihydrochloride], the solubility is more than 10000 µg/mL. Then `O=S(=O)(CCCOc1ccc2[nH]c3nc(O)nc-3cc2c1)C1CCN(CC2CCCCC2)CC1` [Cmpd 17d, 4-[[3-[2,3-Dihydro-2-oxo-1H-imidazo[4,5-b]quinolin-7-yl-oxy]propyl]sulfonyl]-(cyclohexylmethyl)piperidine dihydrochloride], with less than 10000 µg/mL; and `CCC(CC)CN1CCC(S(=O)(=O)CCCOc2ccc3nc4[nH]c(=O)[nH]c4cc3c2)CC1.Cl.Cl` [Cmpd 17e, 4-[[3-[2,3-Dihydro-2-oxo-1H-imidazo[4,5-b]quinolin-7yl-oxy]propyl]sulfonyl]1-(2-ethylbut-1yl)piperidine dihydrochloride], with less than 10000 µg/mL; and `CC(C)CN1CCC(S(=O)(=O)CCCOc2ccc3[nH]c4nc(O)nc-4cc3c2)CC1` [Cmpd 17f, 4[[3-[2,3-Dihydro-2-oxo-1H-imidazo[4.5-b]quinolin-7yloxy]propyl]sulfonyll-1-(2-methylpropyl)piperidinedihydrochloride], with more than 10000 µg/mL. Then `O=S(=O)(CCCOc1ccc2[nH]c3nc(O)nc-3cc2c1)C1CCN(CCC2CCCCC2)CC1` [Cmpd 17g, 1-(2-Cyclohexylethyl)-4-[[(3-[(2,3-dihydro-2-oxo-1H-imidazo[4,5-b]quinolin-7-yloxy]propyl]sulfonyl]piperidinedihydrochloride], with less than 5000 µg/mL; and `O=S(=O)(CCCOc1ccc2[nH]c3nc(O)nc-3cc2c1)C1CCN(CCc2ccccc2)CC1` [Cmpd 17h, 4-[[3-[2,3-Dihydro-2-oxo-1H-imidazo[4,5-b]quinolin-7-yl-oxy]propyl]sulfonyl]-b 1-(2-phenylethyl)piperidine dihydrochloride], with less than 5000 µg/mL; and `O=S(=O)(CCCOc1ccc2[nH]c3nc(O)nc-3cc2c1)C1CCN(Cc2cccc(C(F)(F)F)c2)CC1` [Cmpd 17i, 4-[3-[2,3-Dihydro-2-oxo1H-imidazo[4,5-b]quinolin-7-yl-oxy]propyl]sulfony]1-[(3-trifluoromethylhenvlmethyphenylmethyl]piperidine dihydrochloride], with less than 5000 µg/mL. The result for `O=S(=O)(CCCOc1ccc2[nH]c3nc(O)nc-3cc2c1)C1CCN(CC2CCCCO2)CC1` (stereo not drawn) [Cmpd 17k, 4[[2,3-Dihydro-2-oxo-1H-imidazo[4,5-b]quinolin-7-yl-pxy]propyl]sulfonyl]-1-[(tetrahydro-2H-pyran-2-yl)piperidine dihydrochloride] reads more than 10000 µg/mL; that for `O=S(=O)(CCCCOc1ccc2[nH]c3nc(O)nc-3cc2c1)C1CCNCC1` [Cmpd 18a, 4-[[2,3-Dihydro-2-oxo-1H-imidazo[4,5-b]quinolin-7-yloxy]butyl]sulfonyl]piperidine dihydrochloride], more than 10000 µg/mL; that for `O=S(=O)(CCCCOc1ccc2[nH]c3nc(O)nc-3cc2c1)C1CCN(Cc2ccccc2)CC1` [Cmpd 18b, 4[[3-[2,3-Dihydro-2-oxo-1H-imidazo[4,5-b]quinolin-7-yloxyl]butylsulfonyl]-1-(phenylmethyl)piperidinedihydrochloride], approximately 5000 µg/mL. As to `O=S(=O)(CCCCOc1ccc2[nH]c3nc(O)nc-3cc2c1)C1CCN(CC2CCCCC2)CC1` [Cmpd 18d, 1-(Cyclohexylmethyl)-4-[[3-[2,3-Dihydro-2-oxo-1H-imidaxo [4,5-b]quinolin-7-yloxy]butylsulfonylpiperidinedihydrochloride], the solubility is approximately 2000 µg/mL.

Take `O=S(=O)(CCCCOc1ccc2[nH]c3nc(O)nc-3cc2c1)C1CCN(Cc2ccc(F)cc2)CC1` [l8c, dihydrochloride]: the solubility was approximately 2000 µg/mL. On to `CCC(CC)CN1CCC(S(=O)(=O)CCCCOc2ccc3[nH]c4nc(O)nc-4cc3c2)CC1` [l8e, 4[[3-[2,3-Dihydro-2-oxo-1H-imidazo[4.5-b]qouinolin-7-yloxy]butylsulfonyl]-1-(2-ethylbut-1-yl)piperidinedihydrochloride], for which the solubility is approximately 5000 µg/mL.
